Source: patent publication US20220306659A1, “COMPOUND INHIBITING AND INDUCING DEGRADATION OF EGFR AND ALK” (BEIJING TIDE PHARMACEUTICAL CO., LTD., priority 2019, published 2022)

What was measured:
[1] = molecular target: EGFR^L858R/T790M/C797S (Homo sapiens, UniProt P00533, C797S/L858R/T790M); assay: EGFR inhibitory activity assay (TK-substrate-biotin/ATP, 665/615 ratio); format: biochemical; settings: kinase inhibition
Experimental: EGFR Inhibitory Activity Assay
(1) A compound stock solution was prepared and diluted 3× to obtain a compound dilution; 10 nL of the compound dilution was transferred to a 384-well plate (784075, Greiner) by Echo 550;
(2) The plate was sealed, and centrifuged at 1,000 g for 1 min;
(4) 5 μl of the 2×EGFR protein working solution was added to the 384-well plate from step (2), centrifuged at 1,000 g for 30 s, and allowed to stand at room temperature (mixed thoroughly) for 10 min;
(6) 5 µL of the TK-substrate-biotin and ATP (the mixture prepared in step (5)) was added to the 384-well plate from step (4) to initiate the reaction;
(7) The mixture was centrifuged at 1,000 g for 30 s; the plate was sealed, and allowed to stand (and reacted) at room temperature for 40 min;
(8) 4×Sa-XL 665 and TK-antibody-Cryptate were prepared with detection buffer;
(9) 5 µL of the Sa-XL 665 and 5 µL of the TK-antibody-Cryptate were added successively to the 384-well plate from step (7);
(10) The mixture was centrifuged at 1,000 g for 30 s, and allowed to stand (reacted) at room temperature for 1 h;
(11) The fluorescence values were read at 615 nm and 665 nm by enzyme labeling instrument (PerkinElmer, 74785).
The ratio (665/615) of each well was calculated.
Formula of inhibition rate (%): […]
Ratiocmpd: Ratio (665/615) value of assay compound.
Ratiopositive: Average ratio (665/615) value of positive control.
Ratiovehicle: Average ratio (665/615) value of negative control.
(§1) The nonlinear regression curve (dose response-variable slope) between the value of inhibition rate (%) and the logarithm of compound concentration was fitted with graphpad prism 8.0, the effect dose curve of compound was drawn, and the IC50 value was calculated.

[2] = molecular target: Ba/F3(EGFR^L858R/T790M/C797S) cells (Homo sapiens, UniProt P00533, T790M/C797S/L858R, cells depend on it); assay: Assay of activity on Ba/F3 cells (CTG, 72 h); format: cell-based; settings: read-out: IC50 (nM) Ba/F3 (EGFR^L858R/T790M/C797S)
Chain of Ba/F3(EGFR^L858R/T790M/C797S) cells (P00533 whole entry T790M/C797S/L858R): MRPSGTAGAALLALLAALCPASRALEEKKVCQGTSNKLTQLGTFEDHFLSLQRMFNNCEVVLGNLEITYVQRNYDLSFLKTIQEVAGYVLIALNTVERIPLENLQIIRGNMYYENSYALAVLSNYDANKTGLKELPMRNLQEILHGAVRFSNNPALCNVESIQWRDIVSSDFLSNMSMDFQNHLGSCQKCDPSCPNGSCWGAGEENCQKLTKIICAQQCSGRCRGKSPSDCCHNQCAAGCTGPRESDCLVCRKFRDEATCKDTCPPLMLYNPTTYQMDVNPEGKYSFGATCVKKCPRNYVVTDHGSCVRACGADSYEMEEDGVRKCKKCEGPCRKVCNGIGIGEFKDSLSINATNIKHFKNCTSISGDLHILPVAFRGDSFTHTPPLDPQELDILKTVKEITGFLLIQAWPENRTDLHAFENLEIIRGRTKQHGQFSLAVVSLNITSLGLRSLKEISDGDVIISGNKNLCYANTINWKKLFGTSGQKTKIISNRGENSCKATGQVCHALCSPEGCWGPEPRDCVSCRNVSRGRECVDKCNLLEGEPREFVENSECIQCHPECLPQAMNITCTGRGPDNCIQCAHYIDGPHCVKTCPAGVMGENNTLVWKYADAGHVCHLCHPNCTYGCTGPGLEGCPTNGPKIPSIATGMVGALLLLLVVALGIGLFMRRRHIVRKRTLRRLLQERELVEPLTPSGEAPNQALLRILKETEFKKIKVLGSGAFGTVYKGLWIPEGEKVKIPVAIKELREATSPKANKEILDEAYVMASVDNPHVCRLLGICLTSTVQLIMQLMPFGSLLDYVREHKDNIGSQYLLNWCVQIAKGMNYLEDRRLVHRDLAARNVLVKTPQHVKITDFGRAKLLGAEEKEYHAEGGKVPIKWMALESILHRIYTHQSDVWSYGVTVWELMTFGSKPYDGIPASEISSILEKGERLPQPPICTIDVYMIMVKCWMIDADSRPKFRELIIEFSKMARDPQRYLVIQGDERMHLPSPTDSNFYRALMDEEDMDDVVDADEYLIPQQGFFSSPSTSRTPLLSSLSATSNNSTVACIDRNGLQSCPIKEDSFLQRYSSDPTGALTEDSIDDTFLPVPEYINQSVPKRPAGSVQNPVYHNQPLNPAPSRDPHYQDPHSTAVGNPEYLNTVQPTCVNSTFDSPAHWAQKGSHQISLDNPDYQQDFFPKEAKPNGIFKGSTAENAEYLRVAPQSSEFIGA
Experimental: (§2) (2) A compound stock solution was prepared, and then diluted 3× to obtain a compound dilution. 30 nL of the compound dilution was added to a 384-well plate by Echo (Labcyte, Echo550). The cells were incubated in an incubator at 37° C. and 5% CO2 for 72 h.
(§3) The percent inhibition rate (% inhibition) was calculated by the following formula
(§4) LUMcmpd: Luminescence value of assay compound.
(§5) LUMpositive: Average LUM value of positive drug at a concentration of 10 μM.
(§6) LUMvehicle. Average LUM value of negative control group without drug treatment.
as §1
(§7) Y=Bottom+(Top−Bottom)/(1+1^((LogIC50−X)*HillSlope))
(§8) X-axis: logarithm of compound concentration; Y axis: inhibition rate ([…]).

[3] = molecular target: Ba/F3(EGFR^Del19/T790M/C797S) cells (Homo sapiens, UniProt P00533, DEL746-750/T790M/C797S, cells depend on it); assay: Assay of activity on Ba/F3 cells (CTG, 72 h); format: cell-based; settings: read-out: IC50 (nM) Ba/F3 (EGFR^Del19/T790M/C797S)
Chain of Ba/F3(EGFR^Del19/T790M/C797S) cells (P00533 with tags, fused parts or gaps DEL746-750/T790M/C797S): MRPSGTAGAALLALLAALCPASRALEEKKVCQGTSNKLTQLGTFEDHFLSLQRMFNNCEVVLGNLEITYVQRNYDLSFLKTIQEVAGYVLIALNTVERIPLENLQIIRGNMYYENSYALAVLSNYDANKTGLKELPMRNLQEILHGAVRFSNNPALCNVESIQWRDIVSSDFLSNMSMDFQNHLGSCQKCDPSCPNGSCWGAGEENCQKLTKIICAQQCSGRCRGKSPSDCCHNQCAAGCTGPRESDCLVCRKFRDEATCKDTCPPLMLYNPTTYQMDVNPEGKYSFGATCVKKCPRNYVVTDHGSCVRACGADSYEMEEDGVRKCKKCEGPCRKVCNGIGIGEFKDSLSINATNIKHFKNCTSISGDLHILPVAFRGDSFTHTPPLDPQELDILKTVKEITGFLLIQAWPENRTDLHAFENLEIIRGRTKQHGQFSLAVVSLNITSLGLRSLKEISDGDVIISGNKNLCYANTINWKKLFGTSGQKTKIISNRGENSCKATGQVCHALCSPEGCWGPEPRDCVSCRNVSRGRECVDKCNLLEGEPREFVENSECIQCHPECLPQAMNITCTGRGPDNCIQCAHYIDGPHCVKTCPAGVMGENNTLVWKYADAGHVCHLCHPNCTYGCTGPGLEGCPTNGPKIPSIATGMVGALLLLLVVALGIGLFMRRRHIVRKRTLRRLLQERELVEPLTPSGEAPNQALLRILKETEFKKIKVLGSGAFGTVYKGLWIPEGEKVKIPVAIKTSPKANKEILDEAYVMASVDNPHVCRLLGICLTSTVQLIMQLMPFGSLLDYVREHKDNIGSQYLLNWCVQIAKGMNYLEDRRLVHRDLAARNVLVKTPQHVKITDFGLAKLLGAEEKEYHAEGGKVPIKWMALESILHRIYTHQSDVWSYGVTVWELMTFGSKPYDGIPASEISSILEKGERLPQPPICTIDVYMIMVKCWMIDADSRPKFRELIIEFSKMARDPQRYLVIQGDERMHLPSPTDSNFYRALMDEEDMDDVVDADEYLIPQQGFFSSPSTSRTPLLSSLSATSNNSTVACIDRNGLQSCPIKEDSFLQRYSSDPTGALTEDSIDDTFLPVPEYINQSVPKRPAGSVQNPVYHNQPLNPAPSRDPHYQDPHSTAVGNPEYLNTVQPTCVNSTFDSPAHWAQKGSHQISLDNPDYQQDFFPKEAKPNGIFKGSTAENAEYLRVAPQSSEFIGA
Experimental: as §2, §3, §4, §5, §6, §1, §7, §8

Chain of EGFR^L858R/T790M/C797S (P00533 25-1210 T790M/C797S/L858R): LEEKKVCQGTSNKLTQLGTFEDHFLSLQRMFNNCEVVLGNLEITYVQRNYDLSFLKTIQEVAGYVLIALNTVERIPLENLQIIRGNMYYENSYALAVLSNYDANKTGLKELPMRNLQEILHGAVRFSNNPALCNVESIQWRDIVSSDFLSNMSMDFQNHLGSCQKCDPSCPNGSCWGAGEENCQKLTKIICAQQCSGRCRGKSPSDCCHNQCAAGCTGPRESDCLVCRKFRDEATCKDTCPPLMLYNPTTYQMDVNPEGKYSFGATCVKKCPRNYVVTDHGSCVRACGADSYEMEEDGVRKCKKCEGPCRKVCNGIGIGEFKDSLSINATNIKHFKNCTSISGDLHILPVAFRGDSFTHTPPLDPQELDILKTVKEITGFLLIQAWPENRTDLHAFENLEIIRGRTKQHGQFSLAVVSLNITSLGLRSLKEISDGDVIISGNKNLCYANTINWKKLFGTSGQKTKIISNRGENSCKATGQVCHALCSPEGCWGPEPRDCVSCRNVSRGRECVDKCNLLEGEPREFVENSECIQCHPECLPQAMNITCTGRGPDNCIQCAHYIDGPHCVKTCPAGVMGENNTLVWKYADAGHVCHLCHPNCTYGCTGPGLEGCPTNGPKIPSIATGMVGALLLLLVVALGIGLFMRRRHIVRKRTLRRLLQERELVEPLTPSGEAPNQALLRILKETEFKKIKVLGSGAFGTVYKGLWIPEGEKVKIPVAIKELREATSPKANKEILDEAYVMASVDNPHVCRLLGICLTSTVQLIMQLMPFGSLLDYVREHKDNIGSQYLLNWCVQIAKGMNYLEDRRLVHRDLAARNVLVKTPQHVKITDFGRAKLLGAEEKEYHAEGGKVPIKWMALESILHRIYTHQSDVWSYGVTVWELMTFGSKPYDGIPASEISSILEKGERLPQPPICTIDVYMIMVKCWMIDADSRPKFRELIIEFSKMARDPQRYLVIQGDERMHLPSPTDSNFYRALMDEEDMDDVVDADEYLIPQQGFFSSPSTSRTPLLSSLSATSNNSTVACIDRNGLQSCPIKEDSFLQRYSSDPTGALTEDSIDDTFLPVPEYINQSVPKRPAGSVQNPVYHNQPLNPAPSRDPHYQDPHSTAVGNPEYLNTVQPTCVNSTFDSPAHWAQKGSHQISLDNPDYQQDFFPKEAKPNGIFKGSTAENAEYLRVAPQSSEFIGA

SMILES	IC50 [1] [nM]	GI50 [2] [nM]	GI50 [3] [nM]
COc1cc(N2CCC(N3CCN(CC(=O)NCCNc4cccc5c4C(=O)N(C4CCC(=O)NC4=O)C5=O)CC3)CC2)ccc1Nc1ncc(Cl)c(Nc2ccccc2P(C)(C)=O)n1 (stereo not drawn) [Compound A6, 2-(4-(1-(4-((5-chloro-4-((2-(dimethylphosphoryl)phenyl)amino)pyrimidin-2-yl)amino)-3-methoxyphenyl)piperidin-4-yl)piperazin-1-yl)-N-(2-((2-(2,6-dioxopiperidin-3-yl)-1,3-dioxoisoindolin-4-yl)amino)ethyl)acetamide]	1 to 100		
C=Cc1cnc(Nc2ccc(N3CCC(N4CCN(CCCCCCCCCOc5cccc6c5C(=O)N(C5CCC(=O)NC5=O)C6=O)CC4)CC3)cc2OC)nc1Nc1ccccc1P(C)(C)=O (stereo not drawn) [Compound C25, 4-((9-(4-(1-(4-((4-((2-(dimethylphosphoryl)phenyl)amino)-5-vinylpyrimidin-2-yl)amino)-3-methoxyphenyl)piperidin-4-yl)piperazin-1-yl)nonyl)oxy)-2-(2,6-dioxopiperidin-3-yl)isoindoline-1,3-dione]	101 to 200	201 to 300	
COc1cc(N2CCC(N3CCN(CC(=O)N4CCC(OCC(=O)Nc5cccc6c5CN(C5CCC(=O)NC5=O)C6=O)CC4)CC3)CC2)ccc1Nc1ncc(Cl)c(Nc2ccccc2P(C)(C)=O)n1 (stereo not drawn) [Compound C78, 2-((1-(2-(4-(1-(4-((5-chloro-4-((2-(dimethylphosphoryl)phenyl)amino)pyrimidin-2-yl)amino)-3-methoxyphenyl)piperidin-4-yl)piperazin-1-yl)acetyl)piperidin-4-yl)oxy)—N-(2-(2,6-dioxopiperidin-3-yl)-1-oxoisoindolin-4-yl)acetamide]	1 to 100	> 300	
COc1cc(N2CCC(N3CCN(CC(=O)NC4CCN(CC(=O)Nc5cccc6c5CN(C5CCC(=O)NC5=O)C6=O)CC4)CC3)CC2)ccc1Nc1ncc(Cl)c(Nc2ccccc2P(C)(C)=O)n1 (stereo not drawn) [Compound C88, 2-(4-(1-(4-((5-chloro-4-((2-(dimethylphosphoryl)phenyl)amino)pyrimidin-2-yl)amino)-3-methoxyphenyl)piperidin-4-yl)piperazin-1-yl)-N-(1-(2-((2-(2,6-dioxopiperidin-3-yl)-1-oxoisoindolin-4-yl)amino)-2-oxoethyl)piperidin-4-yl)acetamide]	1 to 100	> 300	
COc1cc(N2CCC(N3CCN(C(=O)CN4CCN(C(=O)COc5cccc6c5C(=O)N(C5CCC(=O)NC5=O)C6=O)CC4)CC3)CC2)ccc1Nc1ncc(Cl)c(Nc2ccccc2P(C)(C)=O)n1 (stereo not drawn) [Compound C99, 4-(2-(4-(2-(4-(1-(4-((5-chloro-4-((2-(dimethylphosphoryl)phenyl)amino)pyrimidin-2-yl)amino)-3-methoxyphenyl)piperidin-4-yl)piperazin-1-yl)-2-oxoethyl)piperazin-1-yl)-2-oxoethoxy)-2-(2,6-dioxopiperidin-3-yl)isoindoline-1,3-dione]	1 to 100	> 300	
COc1cc(N2CCC(N3CCN(C(=O)COc4cccc5c4C(=O)N(C4CCC(=O)NC4=O)C5=O)CC3)CC2)ccc1Nc1ncc(Cl)c(Nc2ccccc2P(C)(C)=O)n1 (stereo not drawn) [Compound C101, 4-(2-(4-(1-(4-((5-chloro-4-((2-(dimethylphosphoryl)phenyl)amino)pyrimidin-2-yl)amino)-3-methoxyphenyl)piperidin-4-yl)piperazin-1-yl)-2-oxoethoxy)-2-(2,6-dioxopiperidin-3-yl)isoindoline-1,3-dione]	1 to 100	> 300	

More lines, now with the values ahead:

IC50 [1] [nM]	GI50 [2] [nM]	GI50 [3] [nM]	SMILES
1 to 100	> 300		COc1cc(N2CCC(N3CCN(C(=O)C4(C(=O)Oc5cccc6c5C(=O)N(C5CCC(=O)NC5=O)C6=O)CC4)CC3)CC2)ccc1Nc1ncc(Cl)c(Nc2ccccc2P(C)(C)=O)n1 (stereo not drawn) [Compound C104, 1-(4-(1-(4-((5-chloro-4-((2-(dimethylphosphoryl)phenyl)amino)pyrimidin-2-yl)amino)-3-methoxyphenyl)piperidin-4-yl)piperazine-1-carbonyl)cyclopropane-1-carboxylate 2-(2,6-dioxopiperidin-3-yl)-1,3-dioxoisoindolin-4-yl ester]
1 to 100	> 300		COc1cc(N2CCC(N3CCN(CC(=O)N4CC(F)(F)C[C@H]4C(=O)Nc4cccc5c4CN(C4CCC(=O)NC4=O)C5=O)CC3)CC2)ccc1Nc1ncc(Cl)c(Nc2ccccc2P(C)(C)=O)n1 (stereo partly drawn) [Compound C110, (2S)-1-(2-(4-(1-(4-((5-chloro-4-((2-(dimethylphosphoryl)phenyl)amino)pyrimidin-2-yl)amino)-3-methoxyphenyl)piperidin-4-yl)piperazin-1-yl)acetyl)-N-(2-(2,6-dioxopiperidin-3-yl)-1-oxoisoindolin-4-yl)-4,4-difluoropyrrolidine-2-carboxamide]
1 to 100			COc1cc(N2CCC(N3CCN(CC(=O)N[C@H](COc4cccc5c4C(=O)N(C4CCC(=O)NC4=O)C5=O)C(C)(C)C)CC3)CC2)ccc1Nc1ncc(Cl)c(Nc2ccccc2P(C)(C)=O)n1 (stereo partly drawn) [Compound C112, 2-(4-(1-(4-((5-chloro-4-((2-(dimethylphosphoryl)phenyl)amino)pyrimidin-2-yl)amino)-3-methoxyphenyl)piperidin-4-yl)piperazin-1-yl)-N-((2S)-1-((2-(2,6-dioxopiperidin-3-yl)-1,3-dioxoisoindolin-4-yl)oxy)-3,3-dimethylbutan-2-yl)acetamide]
1 to 100	> 300		COc1cc(N2CCC(N3CCN(CCCCCC#Cc4cccc5c4C(=O)N(C4CCC(=O)NC4=O)C5=O)CC3)CC2)ccc1Nc1ncc(Cl)c(Nc2ccccc2P(C)(C)=O)n1 (stereo not drawn) [Compound C148, 4-(7-(4-(1-(4-((5-chloro-4-((2-(dimethylphosphoryl)phenyl)amino)pyrimidin-2-yl)amino)-3-methoxyphenyl)piperidin-4-yl)piperazin-1-yl)hept-1-yn-1-yl)-2-(2,6-dioxopiperidin-3-yl)isoindoline-1,3-dione]
	1 to 100	1 to 100	COc1cc(N2CCC(N3CCN(CCCCC#Cc4ccc(F)c5c4CN(C4CCC(=O)NC4=O)C5=O)CC3)CC2)ccc1Nc1ncc(Cl)c(Nc2ccccc2P(C)(C)=O)n1 (stereo not drawn) [Compound C244, 3-(4-(6-(4-(1-(4-((5-chloro-4-((2-(dimethylphosphoryl)phenyl)amino)pyrimidin-2-yl)amino)-3-methoxyphenyl)piperidin-4-yl)piperazin-1-yl)hex-1-yn-1-yl)-7-fluoro-1-oxoisoindolin-2-yl)piperidine-2,6-dione]
	1 to 100	1 to 100	COc1cc(N2CCC(N3CCN(CCCCCOc4cccc5c4CN(C4CCC(=O)NC4=O)C5=O)CC3)CC2)c(C)cc1Nc1ncc(Br)c(Nc2ccc3nccnc3c2P(C)(C)=O)n1 (stereo not drawn) [Compound C246, 3-(4-((5-(4-(1-(4-((5-bromo-4-((5-(dimethylphosphoryl)quinoxalin-6-yl)amino)pyrimidin-2-yl)amino)-5-methoxy-2-methylphenyl)piperidin-4-yl)piperazin-1-yl)pentyl)oxy)-1-oxoisoindolin-2-yl)piperidine-2,6-dione]
	1 to 100	1 to 100	COc1cc(N2CCC3(CCN(CCCCCCc4cccc5c4CN(C4CCC(=O)NC4=O)C5=O)CC3)CC2)c(C)cc1Nc1ncc(Br)c(Nc2ccc3nccnc3c2P(C)(C)=O)n1 (stereo not drawn) [Compound C299, 3-(4-(6-(9-(4-((5-bromo-4-((5-(dimethylphosphoryl)quinoxalin-6-yl)amino)pyrimidin-2-yl)amino)-5-methoxy-2-methylphenyl)-3,9-diazaspiro[5.5]undecan-3-yl)hexyl)-1-oxoisoindolin-2-yl)piperidine-2,6-dione]
